Laboratory results published in patent publication US20110105491A1, “THIAZOLIDINE COMPOUNDS AS OREXIN RECEPTOR ANTAGONISTS” (priority 2008, published 2011).
Read-outs that look alike come from different tables or passages of the source.

How the values were obtained:
human orexin-1 receptor = biological target: T1, human orexin-1 receptor (Homo sapiens, UniProt O43613); assay: FLIPR calcium assay of orexin receptor antagonistic activity, CHO cells expressing human orexin-1 receptor; format: cell-based; details: read-out: OX1 IC50
T1 construct: expressed in transfected cells; host or cells: Chinese hamster ovary (CHO) cells
T1 sequence (O43613 1-425): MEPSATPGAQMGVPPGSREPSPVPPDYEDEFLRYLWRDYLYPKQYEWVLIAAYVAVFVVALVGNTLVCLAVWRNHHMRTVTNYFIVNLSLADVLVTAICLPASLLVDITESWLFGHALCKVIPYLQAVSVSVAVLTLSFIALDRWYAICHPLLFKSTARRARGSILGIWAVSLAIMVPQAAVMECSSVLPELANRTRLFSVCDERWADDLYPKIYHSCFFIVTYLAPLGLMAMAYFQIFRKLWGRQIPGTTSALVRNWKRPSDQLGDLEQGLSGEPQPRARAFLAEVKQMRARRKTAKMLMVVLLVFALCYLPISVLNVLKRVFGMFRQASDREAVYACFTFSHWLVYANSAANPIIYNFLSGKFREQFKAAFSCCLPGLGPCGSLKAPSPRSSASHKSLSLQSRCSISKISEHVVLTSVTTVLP
Description: (§1) The orexin receptor antagonistic activity of the compounds of formula (I) is determined in accordance with the following experimental method.
(§2) Chinese hamster ovary (CHO) cells expressing the human orexin-1 receptor and the human orexin-2 receptor, respectively, are grown in culture medium (Ham F-12 with L-Glutamine) containing 300 μg/ml G418, […] penicillin, 100 μg/ml streptomycin and 10% heat inactivated fetal calf serum (FCS). The cells are seeded at 20′000 cells/well into 384-well black clear bottom sterile plates (Greiner). The seeded plates are incubated overnight at 37° C. in 5% CO2.
(§3) Human orexin-A as an agonist is prepared as 1 mM stock solution in MeOH:water (1:1), diluted in HBSS containing 0.1% bovine serum albumin (BSA), NaHCO3: 0.375 g/l and 20 mM HEPES for use in the assay at a final concentration of 3 nM.
(§4) Antagonists are prepared as 10 mM stock solution in DMSO, then diluted in 384-well plates using DMSO followed by a transfer of the dilutions into in HBSS containing 0.1% bovine serum albumin (BSA), NaHCO3: 0.375 g/l and 20 mM HEPES. On the day of the assay, 50 μl of staining buffer (HBSS containing 1% FCS, 20 mM HEPES, NaHCO3: 0.375 g/l, 5 mM probenecid (Sigma) and 3 μM of the fluorescent calcium indicator fluo-4 AM (1 mM stock solution in DMSO, containing 10% pluronic) is added to each well. The 384-well cell-plates are incubated for 50 min at 37° C. in 5% CO2 followed by equilibration at rt for 30-120 min before measurement.
(§5) Within the Fluorescent Imaging Plate Reader (FLIPR Tetra, Molecular Devices), antagonists are added to the plate in a volume of 10 μl/well, incubated for 10 min and finally […] of agonist is added. Fluorescence is measured for each well at 1 second intervals, and the height of each fluorescence peak is compared to the height of the fluorescence peak induced by 3 nM orexin-A with vehicle in place of antagonist. For each antagonist, the IC50 value (the concentration of compound needed to inhibit 50% of the agonistic response) is determined and may be normalized using the obtained IC50 value of a on-plate reference compound (normalized values in Table 1 are indicated by an asterisk *). Optimized conditions were achieved by adjustment of pipetting speed and cell splitting regime. The calculated IC50 values of the compounds may fluctuate depending on the daily cellular assay performance. Fluctuations of this kind are known to those skilled in the art.

human orexin-2 receptor = biological target: T2, human orexin-2 receptor (Homo sapiens, UniProt O43614); assay: FLIPR calcium assay of orexin receptor antagonistic activity, CHO cells expressing human orexin-2 receptor; format: cell-based; details: read-out: OX2 IC50
T2 construct: expressed in transfected cells; host or cells: Chinese hamster ovary (CHO) cells
T2 sequence (O43614 1-444): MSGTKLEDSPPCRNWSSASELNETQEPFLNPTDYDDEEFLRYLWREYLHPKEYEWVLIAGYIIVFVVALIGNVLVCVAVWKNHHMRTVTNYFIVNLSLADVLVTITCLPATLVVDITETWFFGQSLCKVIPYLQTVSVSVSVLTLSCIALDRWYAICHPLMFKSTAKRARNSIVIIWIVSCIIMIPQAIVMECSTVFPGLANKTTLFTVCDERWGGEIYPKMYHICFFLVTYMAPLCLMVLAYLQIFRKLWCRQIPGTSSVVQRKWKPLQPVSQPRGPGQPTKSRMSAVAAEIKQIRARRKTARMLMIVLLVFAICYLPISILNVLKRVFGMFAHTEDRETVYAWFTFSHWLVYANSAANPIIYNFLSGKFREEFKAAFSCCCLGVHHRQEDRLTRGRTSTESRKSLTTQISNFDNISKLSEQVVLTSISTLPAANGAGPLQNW
Description: as §1, §2, §3, §4, §5

[1] = 3 nM orexin-A as agonist, not normalized, *2/*3 = geometric mean of n = 2/3 values

Structure (SMILES)	IC50 (human orexin-1 receptor) [nM]	IC50 (human orexin-2 receptor) [nM]	IC50 (human orexin-1 receptor; [1]) [nM]	IC50 (human orexin-2 receptor; [1]) [nM]
Cc1nc(C(=O)N2CCSC2CNC(=O)c2cccc3c2OCCO3)c(-c2ccccc2)s1 (racemic) [Example 57, rac-2,3-Dihydro-benzo[1,4]dioxine-5-carboxylic acid [3-(2-methyl-5-phenyl-thiazole-4-carbonyl)-thiazolidin-2-ylmethyl]-amide]			4	10
COc1cccc(-c2nc(C)sc2C(=O)N2CCSC2CNC(=O)c2cccc3c2CCO3)c1 (racemic) [Example 32, rac-2,3-Dihydro-benzofuran-4-carboxylic acid {3-[4-(3-methoxy-phenyl)-2-methyl-thiazole-5-carbonyl]-thiazolidin-2-ylmethyl}-amide]			4	5
Cc1nc(-c2cccc(Cl)c2)c(C(=O)N2CCSC2CNC(=O)c2cccc3c2CCO3)s1 (racemic) [Example 29, rac-2,3-Dihydro-benzofuran-4-carboxylic acid {3-[4-(3-chloro-phenyl)-2-methyl-thiazole-5-carbonyl]-thiazolidin-2-ylmethyl}-amide]			3	7
Cc1cccc(-c2sccc2C(=O)N2CCSC2CNC(=O)c2cccc3ncsc23)c1 (racemic) [Example 109, rac-Benzothiazole-7-carboxylic acid [3-(2-m-tolyl-thiophene-3-carbonyl)-thiazolidin-2-ylmethyl]-amide]			7	10
O=C(NCC1SCCN1C(=O)c1nc(C2CC2)sc1-c1cccc(F)c1)c1cccc2c1CCO2 (racemic) [Example 116, rac-2,3-Dihydro-benzofuran-4-carboxylic acid {3-[2-cyclopropyl-5-(3-fluoro-phenyl)-thiazole-4-carbonyl]-thiazolidin-2-ylmethyl}-amide]			2	5
Cc1nc(C(=O)N2CCSC2CNC(=O)c2cccc3c2CCO3)c(-c2ccc(F)cc2)s1 (racemic) [Example 77, rac-2,3-Dihydro-benzofuran-4-carboxylic acid {3-[5-(4-fluoro-phenyl)-2-methyl-thiazole-4-carbonyl]-thiazolidin-2-ylmethyl}-amide]			4	4
Cc1nc(C(=O)N2CCSC2CNC(=O)c2cccc3ncsc23)c(-c2ccc(C)c(F)c2)s1 (racemic) [Example 120, rac-Benzothiazole-7-carboxylic acid {3-[5-(3-fluoro-4-methyl-phenyl)-2-methyl-thiazole-4-carbonyl]-thiazolidin-2-ylmethyl}-amide]			8	7
Cc1nc(C(=O)N2CCSC2CNC(=O)c2nn(C)c3ccccc23)c(-c2ccc(C(F)(F)F)cc2)s1 (racemic) [Example 61, rac-1-Methyl-1H-indazole-3-carboxylic acid {3-[2-methyl-5-(4-trifluoromethyl-phenyl)-thiazole-4-carbonyl]-thiazolidin-2-ylmethyl}-amide]			16	28
Cc1ccc(-c2nc(C)sc2C(=O)N2CCSC2CNC(=O)c2cccc3c2OCCO3)cc1 (racemic) [Example 42, rac-2,3-Dihydro-benzo[1,4]dioxine-5-carboxylic acid [3-(2-methyl-4-p-tolyl-thiazole-5-carbonyl)-thiazolidin-2-ylmethyl]-amide]			10	31
Cc1nc(-c2cccc(C(F)(F)F)c2)c(C(=O)N2CCSC2CNC(=O)c2nn(C)c3ccccc23)s1 (racemic) [Example 50, rac-1-Methyl-1H-indazole-3-carboxylic acid {3-[2-methyl-4-(3-trifluoromethyl-phenyl)-thiazole-5-carbonyl]-thiazolidin-2-ylmethyl}-amide]			7	43
Cc1nc(C(=O)N2CCSC2CNC(=O)c2cccc3ncsc23)c(-c2ccccc2)o1 (racemic) [Example 88, rac-Benzothiazole-7-carboxylic acid [3-(2-methyl-5-phenyl-oxazole-4-carbonyl)-thiazolidin-2-ylmethyl]-amide]			4	7
Cc1cccc(-c2sc(C)nc2C(=O)N2CCSC2CNC(=O)c2ccn3ccsc23)c1 (racemic) [Example 4, rac-Pyrrolo[2,1-b]thiazole-7-carboxylic acid [3-(2-methyl-5-m-tolyl-thiazole-4-carbonyl)-thiazolidin-2-ylmethyl]-amide]			2	2

Continued, values first:

IC50 (human orexin-1 receptor) [nM]	IC50 (human orexin-2 receptor) [nM]	IC50 (human orexin-1 receptor; [1]) [nM]	IC50 (human orexin-2 receptor; [1]) [nM]	Structure (SMILES)
5	12			Cc1cccc(-c2sc(C)nc2C(=O)N2CCSC2CNC(=O)c2cnn(C)c2C(F)(F)F)c1 (racemic) [Example 142, rac-1-Methyl-5-trifluoromethyl-1H-pyrazole-4-carboxylic acid [3-(2-methyl-5-m-tolyl-thiazole-4-carbonyl)-thiazolidin-2-ylmethyl]-amide]
9	9			CCc1onc(C)c1C(=O)NCC1SCCN1C(=O)c1nc(C)sc1-c1cccc(C)c1 (racemic) [Example 140, rac-5-Ethyl-3-methyl-isoxazole-4-carboxylic acid [3-(2-methyl-5-m-tolyl-thiazole-4-carbonyl)-thiazolidin-2-ylmethyl]-amide]
	3			COc1cccc(-c2nccnc2C(=O)N2CCSC2CNC(=O)c2cccc3ncsc23)c1 (racemic) [Example 196, rac-Benzothiazole-7-carboxylic acid {3-[3-(3-methoxy-phenyl)-pyrazine-2-carbonyl]-thiazolidin-2-ylmethyl}-amide]
5	41			Cc1cccc(-c2sc(C)nc2C(=O)N2CCSC2CNC(=O)c2cccc(C(F)(F)F)n2)c1 (racemic) [Example 162, rac-6-Trifluoromethyl-pyridine-2-carboxylic acid [3-(2-methyl-5-m-tolyl-thiazole-4-carbonyl)-thiazolidin-2-ylmethyl]-amide]
		11	11	Cc1nc(C(=O)N2CCSC2CNC(=O)c2nn(C)c3ccccc23)c(-c2ccc(C)c(F)c2F)s1 (racemic) [Example 126, rac-1-Methyl-1H-indazole-3-carboxylic acid {3-[5-(2,3-difluoro-4-methyl-phenyl)-2-methyl-thiazole-4-carbonyl]-thiazolidin-2-ylmethyl}-amide]
5	8			Cc1cccc(-c2sc(C)nc2C(=O)N2CCSC2CNC(=O)c2nc(C)oc2C)c1 (racemic) [Example 163, rac-2,5-Dimethyl-oxazole-4-carboxylic acid [3-(2-methyl-5-m-tolyl-thiazole-4-carbonyl)-thiazolidin-2-ylmethyl]-amide]
6	5			Cc1cccc(-c2sc(C)nc2C(=O)N2CCSC2CNC(=O)c2sc(C)nc2C)c1 (racemic) [Example 165, rac-2,4-Dimethyl-thiazole-5-carboxylic acid [3-(2-methyl-5-m-tolyl-thiazole-4-carbonyl)-thiazolidin-2-ylmethyl]-amide]
